Reference: US20240067657A1, “AMIDO-SUBSTITUTED PYRIDYL COMPOUNDS AND METHODS OF USE THEREOF FOR THE TREATMENT OF HERPESVIRUSES” (Merck Sharp & Dohme LLC, priority 2020, published 2024)
Like-named read-outs stand apart in the source and are kept apart here.

How the values were obtained:
[1] = biological target: T1, varicella zoster virus DNA polymerase (Varicella-zoster virus, UniProt P09252); assay: VZV polymerase assay (AlphaLISA, IC50); format: biochemical; details: polymerase assay of Example 190
T1 construct: made in house; host or cells: SF21 insect cells (baculovirus vector)
Summary of the method: (§1)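 Baculovirus-expressed polymerase (HCMV 0.2 nM, VZV 0.4 nM final) preincubated 30 min at room temperature with compound in pH 7.5 HEPES buffer; reaction started with 1.6 nM DIG-primer/template and nM dNTPs including biotin-dUTP, run 60 min at 37° C. Incorporation detected by AlphaLISA; IC50 from 4-parameter fit.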

[2] = test system: HSV-1 Strain F in Vero or MRC5 cells; assay: Viral qPCR assay HSV-1 (V0/V1, V2/V3), EC50; format: cell-based; details: 10%
Summary of the method: (§2)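 Infected cells added to compounds (10-point 3-fold series), ~72 h at 37 °C, then lysed; viral genomes by TaqMan qPCR against plasmid standard, normalized to PPIA in V0/V1 only, EC50 from 4-parameter fit. HCMV AD169, 0.05-0.1 pfu/cell, ± 50% FBS; VZV 0.04-0.1 pfu/cell; HSV-1 F 0.0005-0.004 pfu/cell.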

[3] = biological target: T2, Human cytomegalovirus DNA polymerase (Human cytomegalovirus, UniProt P08546); assay: HCMV polymerase assay (AlphaLISA, IC50); format: biochemical; details: polymerase assay of Example 190
T2 construct: made in house; host or cells: SF21 insect cells (baculovirus vector)
Summary of the method: as §1

[4] = test system: HCMV Strain AD169 in MRC-5 cells; assay: Viral qPCR assay HCMV (V0/V1, V2/V3), EC50; format: cell-based; details: read-out: HCMV Cell (EC50)
Summary of the method: as §2

[5] = test system: VZV in MeWo or MRC5 cells; assay: Viral qPCR assay VZV (V0/V1, V2/V3), EC50; format: cell-based; details: 10%
Summary of the method: as §2

[6] = Human alphaherpesvirus 1, Vero, VERO cells, read-out: HSV1 Cell (EC50) VERO 10%
[7] = Human betaherpesvirus 5, AD169, MRC5, viral qPCR assay of Example 191
[8] = Human alphaherpesvirus 3, MeWo, MEWO cells, read-out: VZV Cell (EC50) MEWO 10%
[9] = VERO cells, read-out: HSV1 Cell (EC50) VERO 10%
[10] = viral qPCR assay of Example 191
[11] = MRC5 cells, read-out: VZV Cell (EC50) MRC5 10%
[12] = Human alphaherpesvirus 1, MRC5, MRC5 cells, read-out: HSV1 Cell (EC50) MRC5 10%
[13] = Human alphaherpesvirus 3, MRC5, MRC5 cells, read-out: VZV Cell (EC50) MRC5 10%

T1 sequence (P09252 whole entry): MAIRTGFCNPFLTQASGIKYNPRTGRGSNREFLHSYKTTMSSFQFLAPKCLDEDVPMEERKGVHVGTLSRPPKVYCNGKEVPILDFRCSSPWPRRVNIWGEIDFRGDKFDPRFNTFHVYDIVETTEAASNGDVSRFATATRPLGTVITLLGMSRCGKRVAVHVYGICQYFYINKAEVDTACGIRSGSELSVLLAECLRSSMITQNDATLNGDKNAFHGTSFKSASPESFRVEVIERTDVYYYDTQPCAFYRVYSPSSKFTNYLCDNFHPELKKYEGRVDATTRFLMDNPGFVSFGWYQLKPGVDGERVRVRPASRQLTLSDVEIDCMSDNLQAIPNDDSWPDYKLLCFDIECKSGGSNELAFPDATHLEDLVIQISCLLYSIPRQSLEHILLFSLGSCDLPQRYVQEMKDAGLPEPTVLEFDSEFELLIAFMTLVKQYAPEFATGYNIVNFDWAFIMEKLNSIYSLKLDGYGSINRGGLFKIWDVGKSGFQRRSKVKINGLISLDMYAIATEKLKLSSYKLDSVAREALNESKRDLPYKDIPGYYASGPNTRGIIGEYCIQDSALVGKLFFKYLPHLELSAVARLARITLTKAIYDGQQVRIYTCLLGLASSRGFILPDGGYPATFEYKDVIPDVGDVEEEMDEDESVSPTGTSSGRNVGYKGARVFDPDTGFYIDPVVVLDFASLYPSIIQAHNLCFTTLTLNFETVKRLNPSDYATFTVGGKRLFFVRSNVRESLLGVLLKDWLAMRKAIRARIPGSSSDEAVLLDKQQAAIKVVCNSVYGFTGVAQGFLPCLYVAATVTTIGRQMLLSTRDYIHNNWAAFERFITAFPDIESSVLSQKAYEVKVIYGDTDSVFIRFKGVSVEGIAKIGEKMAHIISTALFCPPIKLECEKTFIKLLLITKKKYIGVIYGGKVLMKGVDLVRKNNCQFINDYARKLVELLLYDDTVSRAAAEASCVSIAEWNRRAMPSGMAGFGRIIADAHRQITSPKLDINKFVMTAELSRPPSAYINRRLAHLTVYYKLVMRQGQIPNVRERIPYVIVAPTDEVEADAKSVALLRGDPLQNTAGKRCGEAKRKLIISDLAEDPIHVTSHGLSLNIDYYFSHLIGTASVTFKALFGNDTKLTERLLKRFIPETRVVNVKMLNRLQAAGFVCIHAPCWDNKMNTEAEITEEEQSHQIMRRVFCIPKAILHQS
T2 sequence (P08546 whole entry): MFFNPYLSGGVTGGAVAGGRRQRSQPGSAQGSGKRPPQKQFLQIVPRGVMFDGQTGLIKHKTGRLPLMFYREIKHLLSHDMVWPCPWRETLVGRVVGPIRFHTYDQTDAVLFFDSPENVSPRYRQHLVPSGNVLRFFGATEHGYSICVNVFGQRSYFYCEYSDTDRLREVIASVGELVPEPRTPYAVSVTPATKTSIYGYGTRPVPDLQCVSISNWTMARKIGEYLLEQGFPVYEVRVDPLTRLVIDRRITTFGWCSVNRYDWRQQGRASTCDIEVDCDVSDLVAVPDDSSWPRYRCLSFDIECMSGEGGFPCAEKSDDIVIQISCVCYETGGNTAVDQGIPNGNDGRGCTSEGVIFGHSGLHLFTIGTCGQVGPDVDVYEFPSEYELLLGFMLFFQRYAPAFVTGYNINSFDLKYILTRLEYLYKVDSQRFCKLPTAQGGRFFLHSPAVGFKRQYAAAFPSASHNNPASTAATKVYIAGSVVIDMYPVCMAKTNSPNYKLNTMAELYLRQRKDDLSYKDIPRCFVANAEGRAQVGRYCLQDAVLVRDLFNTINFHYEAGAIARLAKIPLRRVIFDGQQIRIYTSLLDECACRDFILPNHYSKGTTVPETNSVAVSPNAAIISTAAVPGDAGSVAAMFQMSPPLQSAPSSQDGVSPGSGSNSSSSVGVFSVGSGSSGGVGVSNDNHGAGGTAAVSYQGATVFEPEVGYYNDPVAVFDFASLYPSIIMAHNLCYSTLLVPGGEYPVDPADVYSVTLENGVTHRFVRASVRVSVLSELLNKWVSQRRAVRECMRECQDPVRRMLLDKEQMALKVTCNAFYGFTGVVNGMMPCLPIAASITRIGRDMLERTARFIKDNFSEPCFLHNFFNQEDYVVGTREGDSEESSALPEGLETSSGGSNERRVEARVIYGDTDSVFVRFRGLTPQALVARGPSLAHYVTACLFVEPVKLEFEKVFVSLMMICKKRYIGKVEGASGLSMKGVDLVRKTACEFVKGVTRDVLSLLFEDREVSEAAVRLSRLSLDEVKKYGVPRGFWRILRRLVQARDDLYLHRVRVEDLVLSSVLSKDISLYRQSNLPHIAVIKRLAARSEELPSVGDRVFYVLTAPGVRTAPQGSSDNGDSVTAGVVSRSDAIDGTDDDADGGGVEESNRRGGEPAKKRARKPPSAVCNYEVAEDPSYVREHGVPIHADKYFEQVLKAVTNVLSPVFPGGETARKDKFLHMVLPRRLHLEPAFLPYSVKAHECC

Structure (SMILES) | IC50 [1] [nM] | EC50 [2, 6] [nM] | IC50 [3] [nM] | EC50 [4, 7] [nM] | EC50 [5, 8] [nM] | EC50 [2, 9] [nM] | EC50 [4, 10] [nM] | EC50 [5, 11] [nM] | EC50 [2, 12] [nM] | EC50 [5, 13] [nM]
O=C(NCc1ccc(F)c(F)c1F)c1cc(O[C@H]2CCN3C(=O)OC[C@@H]3C2)c(-c2cnn(C(F)F)c2)cn1 [Compound 87] | 38.8 | 378 | 86.3 | 626 | 441 | – | – | – | – | –
O=C(NCc1ccc(Cl)cc1)c1cc(O[C@H]2CCN3C(=O)OC[C@@H]3C2)c(C2CC2CO)cn1 (single isomer, unassigned) [Compound 156-1] | 24.9 | – | 40.3 | – | – | 3500 | 1280 | 2630 | – | –
O=C(NCc1ccc(Cl)cc1)c1cc(O[C@H]2CCN3C(=O)OC[C@@H]3C2)c(C2CC2O)cn1 (some centres unmarked) [Compound 154] | 11.4 | – | 36.7 | 255 | – | – | – | – | 662 | 896
Cc1cnc(C(=O)NCc2ccc(Cl)cc2)cc1O[C@H]1CCN2C(=O)OC[C@@H]2C1 [Compound 68] | 38.7 | 270 | 51.4 | 603 | 126 | – | – | – | 689 | 1080
O=C(NCc1ccc(Cl)cc1)c1cc(O[C@H]2CCN3C(=O)OC[C@@H]3C2)c(C2CC2CO)cn1 (single isomer, unassigned) [Compound 156-2] | 4.96 | – | 8.03 | – | – | 738 | 600 | 1180 | – | –
Cc1c[n+]([O-])c(C(=O)NCc2ccc(Cl)cc2)cc1O[C@H]1CCN2C(=O)OC[C@@H]2C1 [Compound 130] | 43.4 | 496 | 89.1 | 557 | 252 | – | – | – | – | –
O=C(NCc1ccc(Cl)cc1F)c1cc(O[C@H]2CCN3C(=O)OC[C@@H]3C2)c(-c2cnn(C(F)F)c2)cn1 [Compound 8] | 33.3 | 259 | 26.2 | 440 | 368 | – | – | – | – | –
O=C(NCc1ccc(Cl)cc1)c1cc(O[C@H]2CCN3C(=O)OC[C@@H]3C2)c(CCO)cn1 [Compound 112] | 31.1 | 3260 | 54.4 | 635 | 482 | – | – | – | – | –
O=C(NCc1ccc(Cl)cc1)c1cc(O[C@H]2CCN3C(=O)OCC[C@@H]3C2)c(-c2cnn(C(F)F)c2)cn1 (single isomer, unassigned) [Compound 162-1] | 2.42 | 77 | 3.08 | 88.6 | 61.1 | – | – | – | 107 | 447
O=C(NCc1ccc(Cl)cc1)c1cc(O[C@H]2CCN3C(=O)OC[C@@H]3C2)c(/C=C/CO)cn1 [Compound 155] | 4.71 | 419 | 7.37 | 204 | – | – | – | – | 243 | 251
O=C(NCc1ccc(Cl)cc1)c1cc(O[C@H]2CCN3C(=O)OC[C@@H]3C2)c(-c2cnc(CO)s2)cn1 [Compound 22] | 1.12 | 224 | 0.222 | 68.8 | – | – | – | – | 150 | 109
CC(=O)N1CCC(Oc2cc(C(=O)NCc3ccc(Cl)cc3)ncc2-c2cnco2)CC1 [Compound 65] | 11.8 | – | 35.5 | 769 | – | – | – | – | 288 | 721
O=C(NCc1ccc(Cl)cc1)c1cc(O[C@H]2CCN3C(=O)OC[C@@H]3C2)c(-c2cnn(CCO)c2)cn1 [Compound 34] | 4.77 | 1240 | 6.9 | 71.3 | 190 | – | – | – | 412 | –
CC(=O)N1CCC(Oc2cc(C(=O)NCc3ccc(Cl)cc3)ncc2-c2cnc(C)s2)CC1 [Compound 43] | 14.6 | – | 24.9 | 179 | – | – | – | – | 106 | 140
CC(=O)N1CCC(Oc2cc(C(=O)NCc3ccc(Cl)cc3)ncc2-c2cnn(C(F)F)c2)CC1C (centres unmarked) [Compound 167] | 8.55 | – | 28.6 | 198 | – | – | – | – | 423 | 679
C[C@H](NC(=O)c1cc(O[C@H]2CCN3C(=O)OC[C@@H]3C2)c(-c2cnn(C(F)F)c2)cn1)c1ccc(Cl)cc1 [Compound 81] | 11.9 | – | 14.3 | 312 | – | – | – | – | 153 | 307
CSc1cnc(C(=O)NCc2ccc(Cl)cc2)cc1O[C@H]1CCN2C(=O)OC[C@@H]2C1 [Compound 147a] | 23.4 | – | 19 | 245 | – | – | – | – | 414 | 622
O=C(NCc1ccc(Cl)c(F)c1)c1cc(O[C@H]2CCN3C(=O)OC[C@@H]3C2)c(-c2cnn(C(F)F)c2)cn1 [Compound 79] | 5.19 | 196 | 6.9 | 103 | – | – | – | – | 219 | 209
O=C(NCc1ccc(Cl)cc1)c1cc(O[C@H]2CCN3C(=O)OC[C@@H]3C2)c(CN2CCOCC2)cn1 [Compound 78] | 31.7 | 560 | 83.2 | 446 | 642 | – | – | – | – | –
CC(=O)N1CCC(Oc2cc(C(=O)NCc3ccc(Cl)cc3)ncc2-c2cn[nH]c2)CC1 [Compound 69] | 32.5 | 1110 | 109 | 678 | 351 | – | – | – | – | –
CN(Cc1cnc(C(=O)NCc2ccc(Cl)cc2)cc1O[C@H]1CCN2C(=O)OC[C@@H]2C1)[C@H]1CCOC1 [Compound 143] | 13.4 | 471 | 14.8 | 253 | – | – | – | – | – | 1270
N#Cc1ccc(CNC(=O)c2cc(O[C@H]3CCN4C(=O)OC[C@@H]4C3)c(-c3cnn(C(F)F)c3)cn2)cc1 [Compound 91] | 17.4 | 239 | 32.5 | 239 | 265 | – | – | – | – | –
O=C(NCc1ccc(Cl)cc1)c1cc(O[C@H]2CCN3C(=O)OC[C@@H]3C2)c(-c2cnn3c2COCC3)cn1 [Compound 20] | 12.8 | – | 16.4 | 132 | – | – | – | – | 235 | 343
CC1(O)CCN(Cc2cnc(C(=O)NCc3ccc(Cl)cc3)cc2O[C@H]2CCN3C(=O)OC[C@@H]3C2)C1 (mixture of isomers) [Compound 134] | 95.4 | 5850 | 124 | 1930 | – | – | – | – | – | 3970
CN(CCCO)Cc1cnc(C(=O)NCc2ccc(Cl)cc2)cc1O[C@H]1CCN2C(=O)OC[C@@H]2C1 [Compound 136] | 152 | 9260 | 214 | 989 | 386 | – | – | – | – | –
N#Cc1cnc(C(=O)NCc2ccc(Cl)cc2)cc1O[C@H]1CCN2C(=O)OC[C@@H]2C1 [Compound 127] | 28.3 | 234 | 30 | 349 | 239 | – | – | – | 800 | 1110
